The values below come from patent publication US20240116951A1, “HETEROCYCLIC COMPOUNDS AND USES THEREOF” (Kumquat Biosciences Inc., priority 2022, published 2024).

Holding throughout (assay type): binding
One experiment concerns the target T1, KRAS G12S (Homo sapiens, UniProt P01116, G12S).
T1 construct: made in house; host or cells: E. coli, e.g. BL21 (DE3)
Nature of the experiment: HTRF assay of K-Ras G12S interaction with SOS1 (PPI-HTRF). To be noted: 5 nM KRAS G12S, read-out: PPI-HTRF-5 nM KRAS G12S. An outline of the steps: (§1)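 HTRF on GST-K-Ras/His-hSOS1 was measured after ≥10 min in pH 7.4 HEPES buffer. IC50 values were derived from the ratiometric emission signal.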
A general note: Time-resolved FRET reads energy transfer from a long-lived donor to a nearby acceptor.

The target of another experiment is T2, KRAS G12D (Homo sapiens, UniProt P01116, G12D).
T2 construct: made in house; host or cells: E. coli, e.g. BL21 (DE3)
Nature of the experiment: HTRF assay of K-Ras G12D interaction with SOS1 (PPI-HTRF). To be noted: HTRF, 5 nM KRAS G12D; read-out: PPI-HTRF-5 nM KRAS G12D. An outline of the steps: as §1

In another experiment the target is T3, KRAS WT (Homo sapiens, UniProt P01116).
T3 construct: made in house; host or cells: E. coli, e.g. BL21 (DE3)
Nature of the experiment: HTRF assay of wildtype K-Ras interaction with SOS1 (PPI-HTRF). To be noted: HTRF, 5 nM KRAS WT; read-out: PPI-HTRF-5 nM KRAS WT. An outline of the steps:
as §1

pIC50: −log10 of the molar value.

T2 sequence (P01116 1-188 isoform P01116-2 G12D): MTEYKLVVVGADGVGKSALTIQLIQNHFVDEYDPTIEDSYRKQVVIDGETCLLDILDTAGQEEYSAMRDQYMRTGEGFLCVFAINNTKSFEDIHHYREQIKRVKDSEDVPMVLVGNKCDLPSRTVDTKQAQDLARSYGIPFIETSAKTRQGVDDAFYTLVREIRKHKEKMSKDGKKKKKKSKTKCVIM
T3 sequence (P01116 1-188 isoform P01116-2): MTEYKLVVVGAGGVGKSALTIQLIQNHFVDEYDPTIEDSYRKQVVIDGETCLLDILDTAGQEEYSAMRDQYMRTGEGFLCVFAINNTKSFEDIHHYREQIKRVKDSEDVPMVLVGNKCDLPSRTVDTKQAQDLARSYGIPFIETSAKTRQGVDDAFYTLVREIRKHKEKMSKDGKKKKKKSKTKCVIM
T1 sequence (P01116 1-188 isoform P01116-2 G12S): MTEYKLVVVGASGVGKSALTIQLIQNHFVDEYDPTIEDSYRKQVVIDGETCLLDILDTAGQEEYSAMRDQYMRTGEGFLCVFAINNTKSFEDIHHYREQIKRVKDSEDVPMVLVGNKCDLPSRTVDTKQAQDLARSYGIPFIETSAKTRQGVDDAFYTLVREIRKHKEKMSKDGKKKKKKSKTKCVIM

Regarding `C[C@H]1N(c2nc(OC[C@@]34CCCN3C[C@H](F)C4)nc3c(F)c(-c4ccc(F)c5sc(N)c(C#N)c45)c(Cl)cc23)CC[C@]12CCN2C(=O)n1cnc(Cl)n1` [Compound 229, 2-amino-4-(6-chloro-4-((4S,5R)-1-(3-chloro-1H-1,2,4-triazole-1-carbonyl)-5-methyl-1,6-diazaspiro[3.4]octan-6-yl)-8-fluoro-2-(((2R,7aS)-2-fluorotetrahydro-1H-pyrrolizin-7a(5H)-yl)methoxy)quinazolin-7-yl)-7-fluorobenzo[b]thiophene-3-carbonitrile], the pIC50 on KRAS G12S, on KRAS G12D and at KRAS WT was over 5.30 each time.

For `N#Cc1c(N)sc2c(F)ccc(-c3c(Cl)cc4c(N5CCC6(CCN6C(=O)CCl)C5)nc(OC[C@@]56CCCN5C[C@H](F)C6)nc4c3F)c12` (stereo partly drawn) [Compound 294, 2-amino-4-(6-chloro-4-(1-(2-chloroacetyl)-1,6-diazaspiro[3.4]octan-6-yl)-8-fluoro-2-(((2R,7aS)-2-fluorotetrahydro-1H-pyrrolizin-7a(5H)-yl)methoxy)quinazolin-7-yl)-7-fluorobenzo[b]thiophene-3-carbonitrile], the pIC50 at KRAS G12S, on KRAS G12D and on KRAS WT was over 5.30 in each case.

As to `N#Cc1c(N)sc2c(F)ccc(-c3c(Cl)cc4c(N5CC6(CCN6C(=O)n6cncn6)CC5COC(F)F)nc(OC[C@@]56CCCN5C[C@H](F)C6)nc4c3F)c12` (stereo partly drawn) [Compound 326, 2-amino-4-(6-chloro-4-(7-((difluoromethoxy)methyl)-1-(1H-1,2,4-triazole-1-carbonyl)-1,6-diazaspiro[3.4]octan-6-yl)-8-fluoro-2-(((2R,7aS)-2-fluorotetrahydro-1H-pyrrolizin-7a(5H)-yl)methoxy)quinazolin-7-yl)-7-fluorobenzo[b]thiophene-3-carbonitrile], the pIC50 at KRAS G12S, on KRAS G12D and on KRAS WT was over 5.30 each time.

For `N#Cc1c(N)sc2c(F)ccc(-c3c(Cl)cc4c(N5CCC6(CCN6C(=O)OC(C(F)(F)F)C(F)(F)F)C5)nc(OC[C@@]56CCCN5C[C@H](F)C6)nc4c3F)c12` (stereo partly drawn) [Compound 237, 1,1,1,3,3,3-hexafluoropropan-2-yl 6-(7-(2-amino-3-cyano-7-fluorobenzo[b]thiophen-4-yl)-6-chloro-8-fluoro-2-(((2R,7aS)-2-fluorotetrahydro-1H-pyrrolizin-7a(5H)-yl)methoxy)quinazolin-4-yl)-1,6-diazaspiro[3.4]octane-1-carboxylate], the values for the pIC50 at KRAS G12S, on KRAS G12D and on KRAS WT were over 5.30, under 5.30 and over 5.30, respectively.

As to `N#Cc1c(N)sc2c(F)ccc(-c3c(Cl)cc4c(N5CC[C@]6(CCN6C(=O)n6cncn6)C5)nc(OC[C@@]56CCCN5C[C@H](F)C6)nc4c3F)c12` [Compound 305, 4-(4-((S)-1-(1H-1,2,4-triazole-1-carbonyl)-1,6-diazaspiro[3.4]octan-6-yl)-6-chloro-8-fluoro-2-(((2R,7aS)-2-fluorotetrahydro-1H-pyrrolizin-7a(5H)-yl)methoxy)quinazolin-7-yl)-2-amino-7-fluorobenzo[b]thiophene-3-carbonitrile], the pIC50 on KRAS G12S, at KRAS G12D and on KRAS WT was over 5.30 in each case.

Consider `N#Cc1c(N)sc2c(F)ccc(-c3c(Cl)cc4c(N5CCC6(CCN6C(=O)n6cnc(C(F)(F)F)n6)C5)nc(OC[C@@]56CCCN5C[C@H](F)C6)nc4c3F)c12` (stereo partly drawn) [Compound 292, 2-amino-4-(6-chloro-8-fluoro-2-(((2R,7aS)-2-fluorotetrahydro-1H-pyrrolizin-7a(5H)-yl)methoxy)-4-(1-(3-(trifluoromethyl)-1H-1,2,4-triazole-1-carbonyl)-1,6-diazaspiro[3.4]octan-6-yl)quinazolin-7-yl)-7-fluorobenzo[b]thiophene-3-carbonitrile], for which the pIC50 at KRAS G12S, at KRAS G12D and at KRAS WT was over 5.30 each time.

For `Cc1nc(C)n(C(=O)N2CC[C@]23CCN(c2nc(OC[C@@]45CCCN4C[C@H](F)C5)nc4c(F)c(-c5ccc(F)c6sc(N)c(C#N)c56)c(Cl)cc24)C3)n1` [Compound 306, 2-amino-4-(6-chloro-4-((S)-1-(3,5-dimethyl-1H-1,2,4-triazole-1-carbonyl)-1,6-diazaspiro[3.4]octan-6-yl)-8-fluoro-2-(((2R,7aS)-2-fluorotetrahydro-1H-pyrrolizin-7a(5H)-yl)methoxy)quinazolin-7-yl)-7-fluorobenzo[b]thiophene-3-carbonitrile], the pIC50 on KRAS G12S, at KRAS G12D and at KRAS WT was over 5.30 in each case.

For `C[C@H]1N(c2nc(OC[C@@]34CCCN3C[C@H](F)C4)nc3c(F)c(-c4ccc(F)c5sc(N)c(C#N)c45)c(Cl)cc23)CC[C@@]12CCN2C(=O)n1cnc(Cl)n1` [Compound 263, 2-amino-4-(6-chloro-4-((4R,5R)-1-(3-chloro-1H-1,2,4-triazole-1-carbonyl)-5-methyl-1,6-diazaspiro[3.4]octan-6-yl)-8-fluoro-2-(((2R,7aS)-2-fluorotetrahydro-1H-pyrrolizin-7a(5H)-yl)methoxy)quinazolin-7-yl)-7-fluorobenzo[b]thiophene-3-carbonitrile], the pIC50 at KRAS G12S, on KRAS G12D and at KRAS WT was over 5.30 throughout.

In the case of `N#Cc1c(N)sc2c(F)ccc(-c3c(Cl)cc4c(N5CCCC6(CCCN6)C5)nc(OC[C@@]56CCCN5C[C@H](F)C6)nc4c3F)c12` (stereo partly drawn) [Compound 218, 2-amino-4-(6-chloro-8-fluoro-2-(((2R,7aS)-2-fluorotetrahydro-1H-pyrrolizin-7a(5H)-yl)methoxy)-4-(1,7-diazaspiro[4.5]decan-7-yl)quinazolin-7-yl)-7-fluorobenzo[b]thiophene-3-carbonitrile], the pIC50 at KRAS G12S, at KRAS G12D and on KRAS WT was over 5.30 in each case.

Consider `N#Cc1c(N)sc2c(F)ccc(-c3c(Cl)cc4c(N5CC[C@@]6(CCN6C(=O)n6cncn6)C5)nc(OC[C@@]56CCCN5C[C@H](F)C6)nc4c3F)c12` (single isomer, unassigned) [Compound 234], for which the pIC50 on KRAS G12S, on KRAS G12D and at KRAS WT was over 5.30 each time.

As for `N#CCC1CN(c2nc(OC[C@@]34CCCN3C[C@H](F)C4)nc3c(F)c(-c4ccc(F)c5sc(N)c(C#N)c45)c(Cl)cc23)CC12CCN2C(=O)n1cnc(C(F)F)n1` (stereo partly drawn) [Compound 329, 2-amino-4-(6-chloro-4-(8-(cyanomethyl)-1-(3-(difluoromethyl)-1H-1,2,4-triazole-1-carbonyl)-1,6-diazaspiro[3.4]octan-6-yl)-8-fluoro-2-(((2R,7aS)-2-fluorotetrahydro-1H-pyrrolizin-7a(5H)-yl)methoxy)quinazolin-7-yl)-7-fluorobenzo[b]thiophene-3-carbonitrile], the pIC50 on KRAS G12S, on KRAS G12D and at KRAS WT was over 5.30 throughout.

For `N#Cc1c(N)sc2c(F)ccc(-c3c(Cl)cc4c(N5CCC6(CCCCN6C(=O)C6CC6(F)F)C5)nc(OC[C@@]56CCCN5C[C@H](F)C6)nc4c3F)c12` (stereo partly drawn) [Compound 240, 2-amino-4-(6-chloro-4-(6-(2,2-difluorocyclopropane-1-carbonyl)-2,6-diazaspiro[4.5]decan-2-yl)-8-fluoro-2-(((2R,7aS)-2-fluorotetrahydro-1H-pyrrolizin-7a(5H)-yl)methoxy)quinazolin-7-yl)-7-fluorobenzo[b]thiophene-3-carbonitrile], the pIC50 at KRAS G12S, at KRAS G12D and at KRAS WT was over 5.30 throughout.

As to `N#Cc1cnn(C(=O)N2CCC23CCN(c2nc(OC[C@@]45CCCN4C[C@H](F)C5)nc4c(F)c(-c5ccc(F)c6sc(N)c(C#N)c56)c(Cl)cc24)C3)c1` (stereo partly drawn) [Compound 309, 1-(6-(7-(2-amino-3-cyano-7-fluorobenzo[b]thiophen-4-yl)-6-chloro-8-fluoro-2-(((2R,7aS)-2-fluorotetrahydro-1H-pyrrolizin-7a(5H)-yl)methoxy)quinazolin-4-yl)-1,6-diazaspiro[3.4]octane-1-carbonyl)-1H-pyrazole-4-carbonitrile], the pIC50 at KRAS G12S, on KRAS G12D and on KRAS WT was over 5.30 each time.

On to `N#Cc1c(N)sc2c(F)ccc(-c3c(Cl)cc4c(N5CCC6(CCN6C(=O)OC(CO)C(F)(F)F)C5)nc(OC[C@@]56CCCN5C[C@H](F)C6)nc4c3F)c12` (stereo partly drawn) [Compound 345, 1,1,1-trifluoro-3-hydroxypropan-2-yl 6-(7-(2-amino-3-cyano-7-fluorobenzo[b]thiophen-4-yl)-6-chloro-8-fluoro-2-(((2R,7aS)-2-fluorotetrahydro-1H-pyrrolizin-7a(5H)-yl)methoxy)quinazolin-4-yl)-1,6-diazaspiro[3.4]octane-1-carboxylate], for which the pIC50 on KRAS G12S, at KRAS G12D and at KRAS WT was over 5.30 throughout.

Regarding `N#Cc1c(N)sc2c(F)ccc(-c3c(Cl)cc4c(N5CCC6(CCN6C(=O)n6cc(C(F)(F)F)nn6)C5)nc(OC[C@@]56CCCN5C[C@H](F)C6)nc4c3F)c12` (stereo partly drawn) [Compound 318, 2-amino-4-(6-chloro-8-fluoro-2-(((2R,7aS)-2-fluorotetrahydro-1H-pyrrolizin-7a(5H)-yl)methoxy)-4-(1-(4-(trifluoromethyl)-1H-1,2,3-triazole-1-carbonyl)-1,6-diazaspiro[3.4]octan-6-yl)quinazolin-7-yl)-7-fluorobenzo[b]thiophene-3-carbonitrile], the pIC50 at KRAS G12S, on KRAS G12D and on KRAS WT was over 5.30 each time.
